Experiments:
eIF4AIf [1] = target: T1, eIF4AIf (Mus musculus, UniProt P60843); assay: Helicase (unwinding) assay with RNA-1/RNA-11 duplex; assay type: biochemical, murine; conditions: 50 μM
T1 construct: inferred only from the Ni-NTA purification; made in house; host or cells: Escherichia coli BL21 (DE3) codon+
Protocol: FIG. 8. Selective inhibition of eIF4A activity by hippuristanol. A. Hippuristanol inhibits eIF4AIf-mediated helicase activity. Unwinding reactions were performed with RNA-1/RNA-11 duplex and recombinant eIF4AIf or Ded1p. The presence of 50 μM hippuristanol in the reaction is indicated above the panel. […] Double-stranded RNA duplex and single-stranded RNA molecules are schematically represented to the left of the panel. […] In vitro splicing reactions were performed with the AdML pre-mRNAs as previously described (48). AdML pre-mRNA was incubated with nuclear extracts in the presence of increasing amounts of hippuristanol (2 μM [lane4], 10 μM [lane 5] and 50 μM [lane 6]). Reaction products were resolved on 15% polyacrylamide/8M urea gels and subjected to autoradiography. The position of migration of the pre-mRNA and spliced product is denoted to the right. C. Rescue of hippuristanol-induced inhibition with recombinant eIF4AIf. […] A graphical representation from three experiments is provided below. Translational efficiency was calculated relative to luciferase values obtained from control translations containing vehicle (0.5% DMSO).
(§1) Recombinant eIF4AI Purification and Assays. […] Quantifications were performed on a Fujix BAS2000 phosphoimager with a Fuji imaging screen. […]

[2] = system: Mahoney strain of poliovirus type 1; assay type: cell-based; conditions: HeLa cells, 2 pfu/cell, 80 nM
eIF4AIf [3] = target: T1, eIF4AIf; assay: UV crosslinking of alpha-32P-ATP to recombinant eIF4AIf; assay type: binding, murine; conditions: 50 μM
Protocol: (§2) FIG. 7. Effects of hippuristanol on ATP hydrolysis, ATP binding, and RNA binding activities of eIF4A. A. Hippuristanol inhibits eIF4AIf RNA-dependent ATPase activity. The rate of ATP hydrolysis as a function of hippuristanol concentration is plotted relative to the rate obtained in the presence of vehicle (0.5% DMSO). ATP hydrolysis was measured in the presence of 2.5 μM poly (U) and monitored by thin layer chromatography. […] Samples were resolved by SDS-PAGE and subjected to autoradiography. C. The RNA binding activity of eIF4AIf is inhibited by hippuristanol. Oxidized ^32P-cap labeled CAT mRNA was incubated with recombinant eIF4AIf in the absence (lane 2) or presence of ATP (lanes 1, 3-6), 0.6 mM m^7GDP (lane 3), 0.6 mM GDP (lane 4), or 50 μM hippuristanol (lane 6). Following treatment with RNase A, samples were resolved by SDS-PAGE and subjected to autoradiography. The asterisk denotes the position of migration of a ˜30 kDa contaminant in the recombinant eIF4AIf preparation used as an internal loading reference. D. The RNA binding activity of eIF4Ac is inhibited by hippuristanol. Oxidized ^32P-cap labeled CAT mRNA was incubated with 0.7 μg of native eIF4F in the absence (lane 1) or presence (lane 2) of 50 μM hippuristanol. […]
as §1

eIF4AIf [4] = target: T1, eIF4AIf; assay: Crosslinking of oxidized 32P-cap labeled CAT mRNA to recombinant eIF4AIf (RNA binding); design: species or system murine; conditions: 50 μM
Protocol: as §2
Ribosome Binding and mRNA Crosslinking. […] Fractions of 500 μl were collected and radioactivity was determined by scintillation counting. […]

80S complex formation = assay: Ribosome binding (80S complex formation) of 32P-labeled CAT mRNA in rabbit reticulocyte lysate; assay type: biochemical; conditions: CAT mRNA/CHX + 50 μM hippuristanol; CHX alone 22% binding
Protocol: FIG. 6. Hippuristanol inhibits translation initiation. A. Hippuristanol inhibits 80S complex formation. ^32P-labeled CAT mRNA was incubated in rabbit reticulocyte lysate with cycloheximide (CHX) in the presence or absence of 50 μM hippuristanol. Complexes were resolved on glycerol gradients. Total counts recovered from each gradient and the percent mRNA bound in 80S complexes were: CAT mRNA/CHX [43,498 cpm, 22% binding] and CAT mRNA/CHX+Hipp. [45,279 cpm, 5.7% binding]. B. Hippuristanol inhibits crosslinking of eIF4Ac and eIF4B to capped mRNA. Initiation factors were chemically crosslinked to ^32P cap-labeled mRNA in the absence (lane 2) or presence of ATP (lanes 1, 3-6), 0.6 mM m^7GDP (lane 3), 0.6 mM GDP (lane 4), or 50 μM hippuristanol (lane 6). Following nuclease digestion, samples were resolved by SDS-PAGE and the gel subjected to autoradiography.
Ribosome Binding and mRNA Crosslinking. Ribosome binding assays were performed by incubating ^32P-labelled CAT mRNA in rabbit reticulocyte lysate or wheat germ extracts in the presence of: 600 μM cycloheximide (CHX), 1 mM GMP-PNP, and/or 50 μM hippuristanol or vehicle for 10 min (33). […] Fractions of 500 μl were collected and radioactivity was determined by scintillation counting. […]

T1 sequence (P60843 whole entry): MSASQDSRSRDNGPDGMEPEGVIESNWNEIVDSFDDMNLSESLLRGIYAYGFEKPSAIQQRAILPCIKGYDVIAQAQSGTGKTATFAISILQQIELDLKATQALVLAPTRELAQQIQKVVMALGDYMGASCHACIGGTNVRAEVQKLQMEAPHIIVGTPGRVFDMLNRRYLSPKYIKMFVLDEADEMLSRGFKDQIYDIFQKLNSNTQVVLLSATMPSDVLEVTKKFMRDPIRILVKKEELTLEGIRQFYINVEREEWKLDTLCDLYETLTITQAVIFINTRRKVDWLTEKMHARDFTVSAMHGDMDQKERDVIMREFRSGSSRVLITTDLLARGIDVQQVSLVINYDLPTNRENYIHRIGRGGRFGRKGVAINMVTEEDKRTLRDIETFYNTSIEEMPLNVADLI

## C[C@H]1C[C@@]2(O[C@H]3C[C@H]4[C@@H]5CC[C@H]6C[C@H](O)CC[C@]6(C)[C@H]5[C@@H](O)C[C@]4(C)[C@H]3[C@@]2(C)O)OC1(C)C [Hippuristanol, hippuristanol]
eIF4AIf [1]
  eIF4AIf-mediated helicase activity: inhibits
[2]
  eIF4GII cleavage following poliovirus infection: delays
  onset of poliovirus proteins during infection: delays
eIF4AIf [3]
  ATP crosslinking to eIF4AIf: does not affect
eIF4AIf [4]
  RNA binding activity of eIF4AIf: inhibited
80S complex formation
  percent mRNA bound in 80S complexes: 5.7%
